Tested on: MV-4-11 cells
Assay: Gene expression microarray analysis (Affymetrix PrimeView) and GSEA
Format: cell-based, human
Parameters: RFU PODN (11730768_x_at) / Fold change /veh PODN (11730768_x_at) / RFU LINC00158 (11744669_a_at) / Fold change /veh LINC00158 (11744669_a_at) / RFU DUSP10 (11751237_a_at) / Fold change /veh DUSP10 (11751237_a_at) / RFU ID3 (11757404_x_at) / Fold change /veh ID3 (11757404_x_at) / RFU PLEKHG5 (11737974_s_at) / Fold change /veh PLEKHG5 (11737974_s_at) / RFU LRRC4B (11730491_at) / Fold change /veh LRRC4B (11730491_at) / RFU GIMAP4 (11747438_a_at) / Fold change /veh GIMAP4 (11747438_a_at) / RFU KRT8 (11758183_x_at) / Fold change /veh KRT8 (11758183_x_at) / RFU CNN1 (11734310_a_at) / Fold change /veh CNN1 (11734310_a_at) / RFU VPS37D (11726825_at) / Fold change /veh VPS37D (11726825_at) / RFU C10orf10 (11716522_x_at) / Fold change /veh C10orf10 (11716522_x_at) / RFU KIR2DL2 /// KIR2DL4 /// KIR2DL5A /// KIR2DL5B /// KIR2DS1 /// KIR2DS2 /// KIR2DS3 /// KIR2DS4 /// KIR3DL3 /// KIR3DL3 /// KIR3DS1 (11738374_at) / Fold change /veh KIR2DL2 /// KIR2DL4 /// KIR2DL5A /// KIR2DL5B /// KIR2DS1 /// KIR2DS2 /// KIR2DS3 /// KIR2DS4 /// KIR3DL3 /// KIR3DL3 /// KIR3DS1 (11738374_at) / RFU C1QL1 (11718748_at) / Fold change /veh C1QL1 (11718748_at) / RFU TMPRSS4 (11747572_a_at) / Fold change /veh TMPRSS4 (11747572_a_at) / RFU HAMP (11756126_x_at) / Fold change /veh HAMP (11756126_x_at) / RFU RNFT2 (11725882_a_at) / Fold change /veh RNFT2 (11725882_a_at) / RFU NR4A2 (11747474_a_at) / Fold change /veh NR4A2 (11747474_a_at) / RFU ABCC12 (11746883_a_at) / Fold change /veh ABCC12 (11746883_a_at) / RFU TMEM136 (11760407_x_at) / Fold change /veh TMEM136 (11760407_x_at) / RFU CLDN22 /// WWC2 (11732394_at) / Fold change /veh CLDN22 /// WWC2 (11732394_at) / RFU HLA-DPB1 (11760878_x_at) / Fold change /veh HLA-DPB1 (11760878_x_at) / RFU SPINT1 (11716480_a_at) / Fold change /veh SPINT1 (11716480_a_at) / RFU GAP43 (11754022_s_at) / Fold change /veh GAP43 (11754022_s_at) / RFU A4GNT (11735810_at) / Fold change /veh A4GNT (11735810_at) / RFU PRB3 (11715151_x_at) / Fold change /veh PRB3 (11715151_x_at) / RFU TUBB4B (11761932_at) / Fold change /veh TUBB4B (11761932_at) / RFU CAPN14 (11732068_a_at) / Fold change /veh CAPN14 (11732068_a_at) / RFU TMCC2 (11721928_a_at) / Fold change /veh TMCC2 (11721928_a_at) / RFU IRGQ (11745062_a_at) / Fold change /veh IRGQ (11745062_a_at) / RFU FAM174B (11720279_a_at) / Fold change /veh FAM174B (11720279_a_at) / RFU TMPRSS4 (11748680_a_at) / Fold change /veh TMPRSS4 (11748680_a_at) / RFU FAM212B (11763350_a_at) / Fold change /veh FAM212B (11763350_a_at) / RFU PLEKHG5 (11743358_a_at) / Fold change /veh PLEKHG5 (11743358_a_at) / RFU ZSCAN30 (11745921_a_at) / Fold change /veh ZSCAN30 (11745921_a_at) / RFU CMKLR1 (11741424_a_at) / Fold change /veh CMKLR1 (11741424_a_at) / RFU LOC101060620 /// MAPK8IP1 (11723275_at) / Fold change /veh LOC101060620 /// MAPK8IP1 (11723275_at) / RFU SPTSSB (11747773_x_at) / Fold change /veh SPTSSB (11747773_x_at) / RFU PRSS12 (11739890_at) / Fold change /veh PRSS12 (11739890_at) / RFU BIN1 (11741810_x_at) / Fold change /veh BIN1 (11741810_x_at) / RFU WNT11 (11732464_a_at) / Fold change /veh WNT11 (11732464_a_at) / RFU C10orf10 (11716521_a_at) / Fold change /veh C10orf10 (11716521_a_at) / RFU C5orf56 (11738089_at) / Fold change /veh C5orf56 (11738089_at) / RFU CYB561 (11721691_x_at) / Fold change /veh CYB561 (11721691_x_at) / RFU ANKRD19P (11752326_a_at) / Fold change /veh ANKRD19P (11752326_a_at) / RFU OR2T12 /// OR2T33 /// OR2T8 (11738714_s_at) / Fold change /veh OR2T12 /// OR2T33 /// OR2T8 (11738714_s_at) / RFU VCAN (11748164_a_at) / Fold change /veh VCAN (11748164_a_at) / RFU JSRP1 (11732532_at) / Fold change /veh JSRP1 (11732532_at) / RFU KRTAP10-11 (11738290_x_at) / Fold change /veh KRTAP10-11 (11738290_x_at) / RFU MYO3A (11730013_a_at) / Fold change /veh MYO3A (11730013_a_at) / RFU EBF3 (11725865_a_at) / Fold change /veh EBF3 (11725865_a_at) / RFU CAMK2N1 (11719241_x_at) / Fold change /veh CAMK2N1 (11719241_x_at) / RFU C5orf56 (11738088_a_at) / Fold change /veh C5orf56 (11738088_a_at) / RFU OLFML3 (11715873_a_at) / Fold change /veh OLFML3 (11715873_a_at) / RFU LOC100653217 /// NTM (11731650_a_at) / Fold change /veh LOC100653217 /// NTM (11731650_a_at) / RFU MAPK11 (11762145_a_at) / Fold change /veh MAPK11 (11762145_a_at) / RFU FIZ1 (11724087_x_at) / Fold change /veh FIZ1 (11724087_x_at) / RFU OASL (11726364_x_at) / Fold change /veh OASL (11726364_x_at) / RFU SOX15 (11748057_x_at) / Fold change /veh SOX15 (11748057_x_at) / RFU CD79A (11719716_a_at) / Fold change /veh CD79A (11719716_a_at) / RFU HIST1H1D (11736915_at) / Fold change /veh HIST1H1D (11736915_at) / RFU CASKIN2 (11723855_a_at) / Fold change /veh CASKIN2 (11723855_a_at) / RFU LOC730098 (11760151_x_at) / Fold change /veh LOC730098 (11760151_x_at) / RFU OR4N2 (11742367_at) / Fold change /veh OR4N2 (11742367_at) / RFU PRRT2 (11749266_a_at) / Fold change /veh PRRT2 (11749266_a_at) / RFU SNX32 (11753110_a_at) / Fold change /veh SNX32 (11753110_a_at) / RFU CDHR5 (11726645_a_at) / Fold change /veh CDHR5 (11726645_a_at) / RFU RCAN1 (11760418_a_at) / Fold change /veh RCAN1 (11760418_a_at) / RFU FAM167A (11723789_a_at) / Fold change /veh FAM167A (11723789_a_at) / RFU FAM26E (11764081_at) / Fold change /veh FAM26E (11764081_at) / RFU ISYNA1 (11749810_s_at) / Fold change /veh ISYNA1 (11749810_s_at) / RFU ACY1 (11761880_at) / Fold change /veh ACY1 (11761880_at) / RFU 11764098_at / Fold change /veh 11764098_at / RFU SAMD14 (11745864_x_at) / Fold change /veh SAMD14 (11745864_x_at) / RFU NPB (11741838_a_at) / Fold change /veh NPB (11741838_a_at) / RFU TMPRSS6 (11731388_a_at) / Fold change /veh TMPRSS6 (11731388_a_at) / RFU KRTAP10-2 (11738614_at) / Fold change /veh KRTAP10-2 (11738614_at) / RFU ARHGAP8 /// PRR5-ARHGAP8 (11727945_x_at) / Fold change /veh ARHGAP8 /// PRR5-ARHGAP8 (11727945_x_at) / RFU KRTAP5-7 /// NADSYN1 (11734609_at) / Fold change /veh KRTAP5-7 /// NADSYN1 (11734609_at) / RFU RASL12 (11751679_a_at) / Fold change /veh RASL12 (11751679_a_at) / RFU CDKN2B (11736163_a_at) / Fold change /veh CDKN2B (11736163_a_at) / RFU PRF1 (11729649_at) / Fold change /veh PRF1 (11729649_at) / RFU, ZNF638 /// ZNF638-IT1 / Fold change vs veh, ZNF638 /// ZNF638-IT1 / RFU, PANK3 / Fold change vs veh, PANK3 / RFU, SH3YL1 / Fold change vs veh, SH3YL1 / RFU, ZEB2 / Fold change vs veh, ZEB2 / RFU, NRIP1 / Fold change vs veh, NRIP1 / RFU, PTTG1IP / Fold change vs veh, PTTG1IP / RFU, CAPN2 / Fold change vs veh, CAPN2 / RFU, MED14 / Fold change vs veh, MED14 / RFU, SNORA58 / Fold change vs veh, SNORA58 / RFU, C1orf63 / Fold change vs veh, C1orf63 / RFU, LRRFIP1 / Fold change vs veh, LRRFIP1 / RFU, NDUFAF7 / Fold change vs veh, NDUFAF7 / RFU, SLC12A2 / Fold change vs veh, SLC12A2 / RFU, IBTK / Fold change vs veh, IBTK / RFU, ESF1 / Fold change vs veh, ESF1 / Fold change vs veh, TMEM50B / RFU, TAOK1 / Fold change vs veh, TAOK1 / RFU, ACBD3 / Fold change vs veh, ACBD3 / RFU, TMA16 / Fold change vs veh, TMA16 / RFU, RWDD3 / Fold change vs veh, RWDD3 / RFU, BCAT1 / Fold change vs veh, BCAT1 / RFU, EDEM3 / Fold change vs veh, EDEM3 / RFU, TMEM33 / Fold change vs veh, TMEM33 / RFU, WDR75 / Fold change vs veh, WDR75 / RFU, AHCTF1 / Fold change vs veh, AHCTF1 / RFU, TFRC / Fold change vs veh, TFRC / RFU, ZDHHC17 / Fold change vs veh, ZDHHC17 / RFU, NOM1 / Fold change vs veh, NOM1 / RFU, ARL8B / Fold change vs veh, ARL8B / RFU, ZBTB11 / Fold change vs veh, ZBTB11 / RFU, TAMM41 / Fold change vs veh, TAMM41 / RFU, KIAA1704 /// LOC100996395 / Fold change vs veh, KIAA1704 /// LOC100996395 / RFU, ING1 / Fold change vs veh, ING1 / RFU, TRMT61B / Fold change vs veh, TRMT61B / RFU, FUBP3 / Fold change vs veh, FUBP3 / RFU, TP53 / Fold change vs veh, TP53 / RFU, TNKS2 / Fold change vs veh, TNKS2 / RFU, ZFP14 / Fold change vs veh, ZFP14 / RFU, ACTR2 / Fold change vs veh, ACTR2 / RFU, PPP3R1 / Fold change vs veh, PPP3R1 / RFU, PIK3R1 / Fold change vs veh, PIK3R1 / RFU, HNRNPA1 / Fold change vs veh, HNRNPA1 / RFU, RNF170 / Fold change vs veh, RNF170 / RFU, ZNF28 / Fold change vs veh, ZNF28 / RFU, RNGTT / Fold change vs veh, RNGTT / RFU, OGT / Fold change vs veh, OGT / RFU, BRD1 / Fold change vs veh, BRD1 / RFU, MARS / Fold change vs veh, MARS / RFU, ZNF655 / Fold change vs veh, ZNF655 / RFU, FAHD1 / Fold change vs veh, FAHD1 / RFU, BDP1 / Fold change vs veh, BDP1 / RFU, LRRCC1 / Fold change vs veh, LRRCC1 / RFU, ARID1A / Fold change vs veh, ARID1A / RFU, ZNF146 / Fold change vs veh, ZNF146 / RFU, ZNF330 / Fold change vs veh, ZNF330 / RFU, GPN3 / Fold change vs veh, GPN3 / RFU, C9orf123 / Fold change vs veh, C9orf123 / RFU, N4BP2L2 / Fold change vs veh, N4BP2L2 / RFU, ARFIP1 / Fold change vs veh, ARFIP1 / RFU, FAM179B / Fold change vs veh, FAM179B / RFU, BCL10 / Fold change vs veh, BCL10 / RFU, UHRF1BP1L / Fold change vs veh, UHRF1BP1L / RFU, BET1 / Fold change vs veh, BET1 / RFU, CNOT2 / Fold change vs veh, CNOT2 / RFU, ZNF268 / Fold change vs veh, ZNF268 / Fold change vs veh, ZNF507 / RFU, DGCR2 / Fold change vs veh, DGCR2 / RFU, WDSUB1 / Fold change vs veh, WDSUB1 / Fold change vs veh, HSP90B1 /// MIR3652 / RFU, ADSS / Fold change vs veh, ADSS / RFU, GK / Fold change vs veh, GK / RFU, ZNF148 / Fold change vs veh, ZNF148 / RFU, TAF9 / Fold change vs veh, TAF9 / RFU, SLC1A5 / Fold change vs veh, SLC1A5 / RFU, SLMO2 / Fold change vs veh, SLMO2 / RFU, ABCC4 / Fold change vs veh, ABCC4 / RFU, LOC101060439 /// RAP1B / Fold change vs veh, LOC101060439 /// RAP1B / RFU, RFX7 / Fold change vs veh, RFX7 / RFU, GTPBP10 / Fold change vs veh, GTPBP10 / RFU, CNEP1R1 / Fold change vs veh, CNEP1R1 / RFU, BIVM-ERCC5 /// ERCC5 / Fold change vs veh, BIVM-ERCC5 /// ERCC5 / RFU, ILF3 / Fold change vs veh, ILF3 / RFU 11762660_at / Fold change /veh 11762660_at / RFU VCAN (11757783_s_at) / Fold change /veh VCAN (11757783_s_at) / RFU DDX43 (11728927_at) / Fold change /veh DDX43 (11728927_at) / RFU KRT8 (11758188_x_at) / Fold change /veh KRT8 (11758188_x_at) / RFU NKD1 (11759106_at) / Fold change /veh NKD1 (11759106_at) / RFU SRD5A1 (11742802_a_at) / Fold change /veh SRD5A1 (11742802_a_at) / RFU TPSAB1 /// TPSB2 (11721975_s_at) / Fold change /veh TPSAB1 /// TPSB2 (11721975_s_at) / RFU GSTM3 (11746129_a_at) / Fold change /veh GSTM3 (11746129_a_at) / RFU IL23R (11737362_x_at) / Fold change /veh IL23R (11737362_x_at) / RFU TMEM51 (11727254_a_at) / Fold change /veh TMEM51 (11727254_a_at) / RFU PIWIL2 (11732686_x_at) / Fold change /veh PIWIL2 (11732686_x_at) / RFU ORM1 (11744905_x_at) / Fold change /veh ORM1 (11744905_x_at) / RFU CCDC152 (11743942_at) / Fold change /veh CCDC152 (11743942_at) / RFU ECM1 (11717891_a_at) / Fold change /veh ECM1 (11717891_a_at) / RFU IL23R (11748794_a_at) / Fold change /veh IL23R (11748794_a_at) / RFU TNFAIP8L3 (11732012_x_at) / Fold change /veh TNFAIP8L3 (11732012_x_at) / RFU MBOAT4 (11741988_at) / Fold change /veh MBOAT4 (11741988_at) / RFU 11764193_at / Fold change /veh 11764193_at / RFU TMEM53 (11763286_at) / Fold change /veh TMEM53 (11763286_at) / RFU MAGEB2 (11727129_at) / Fold change /veh MAGEB2 (11727129_at) / RFU TMEM200A (11744735_a_at) / Fold change /veh TMEM200A (11744735_a_at) / RFU CCDC152 (11751479_a_at) / Fold change /veh CCDC152 (11751479_a_at) / RFU FAM211A (11726209_a_at) / Fold change /veh FAM211A (11726209_a_at) / RFU RGS16 (11746705_a_at) / Fold change /veh RGS16 (11746705_a_at) / RFU VCAN (11755009_s_at) / Fold change /veh VCAN (11755009_s_at) / RFU RHOB (11743442_s_at) / Fold change /veh RHOB (11743442_s_at) / RFU RGS16 (11720943_a_at) / Fold change /veh RGS16 (11720943_a_at) / RFU RGS16 (11720944_at) / Fold change /veh RGS16 (11720944_at) / RFU, VPS4B / Fold change vs veh, VPS4B / RFU, CREB1 / Fold change vs veh, CREB1 / RFU, DNAJC13 / Fold change vs veh, DNAJC13 / RFU, GNAQ / Fold change vs veh, GNAQ / RFU, CDK5R1 / Fold change vs veh, CDK5R1 / RFU, ZRANB3 / Fold change vs veh, ZRANB3 / RFU, CUL4A / Fold change vs veh, CUL4A / RFU, CCNY / Fold change vs veh, CCNY / RFU, UFL1 / Fold change vs veh, UFL1 / RFU, COG3 / Fold change vs veh, COG3 / RFU, DIAPH2 / Fold change vs veh, DIAPH2 / RFU, SKA2 / Fold change vs veh, SKA2 / RFU, AFF3 / Fold change vs veh, AFF3 / RFU, LMF1 / Fold change vs veh, LMF1 / RFU, IPO11 / Fold change vs veh, IPO11 / RFU, DFFB / Fold change vs veh, DFFB / RFU, FOXP1 / Fold change vs veh, FOXP1 / RFU, CARD8 / Fold change vs veh, CARD8 / RFU, STRN3 / Fold change vs veh, STRN3 / RFU, ADK / Fold change vs veh, ADK / RFU, RASSF2 / Fold change vs veh, RASSF2 / RFU, WIPF1 / Fold change vs veh, WIPF1 / RFU, LARP1B / Fold change vs veh, LARP1B / RFU, RASA1 / Fold change vs veh, RASA1 / RFU, RB1 / Fold change vs veh, RB1 / RFU, PPFIA1 / Fold change vs veh, PPFIA1 / RFU, MAT2A / Fold change vs veh, MAT2A / RFU, CCT5 / Fold change vs veh, CCT5 / RFU, WDR92 / Fold change vs veh, WDR92 / RFU, CUX1 / Fold change vs veh, CUX1 / RFU, TTC7A / Fold change vs veh, TTC7A / RFU, TMEM135 / Fold change vs veh, TMEM135 / RFU, DEPTOR / Fold change vs veh, DEPTOR / RFU, CPM / Fold change vs veh, CPM / RFU, DNAJB6 / Fold change vs veh, DNAJB6 / RFU, CACNA2D3 / Fold change vs veh, CACNA2D3 / RFU, DTX4 / Fold change vs veh, DTX4 / RFU, TFCP2 / Fold change vs veh, TFCP2 / RFU, GMCL1 /// GMCL1P1 / Fold change vs veh, GMCL1 /// GMCL1P1 / RFU, AEBP2 / Fold change vs veh, AEBP2 / RFU, SNHG1 /// SNORD22 /// SNORD25 /// SNORD26 /// SNORD27 /// SNORD28 /// SNORD29 /// SNORD31 / Fold change vs veh, SNHG1 /// SNORD22 /// SNORD25 /// SNORD26 /// SNORD27 /// SNORD28 /// SNORD29 /// SNORD31 / Fold change (Aza/veh), C12orf56 (ProbeSet 11735607_a_at) / Fold change (ACY-1035/veh), C12orf56 (ProbeSet 11735607_a_at) / Fold change (Aza/veh), FGFR1OP (ProbeSet 11751329_s_at) / Fold change (ACY-1035/veh), FGFR1OP (ProbeSet 11751329_s_at) / Fold change (Aza/veh), VPS36 (ProbeSet 11739960_a_at) / Fold change (ACY-1035/veh), VPS36 (ProbeSet 11739960_a_at) / RFU SYPL1 (11715823_x_at) / Fold change /veh SYPL1 (11715823_x_at) / RFU IGFBP7 (11715501_s_at) / Fold change /veh IGFBP7 (11715501_s_at) / RFU REEP3 (11722064_at) / Fold change /veh REEP3 (11722064_at) / RFU IGLL1 (11728026_x_at) / Fold change /veh IGLL1 (11728026_x_at): dose or concentration left out as unconfirmed
Details: MV-4-11 cells, 48 hours

## Nc1ncn([C@@H]2O[C@H](CO)[C@@H](O)[C@H]2O)c(=O)n1 [azacitidine]
  Fold change /veh VCAN (11748164_a_at): 1.17

From PMC5218480 (PLoS ONE, 2017)
